Source: US20150202203A1, “Method of Treating Gastrointestinal Stromal Tumors” (Novartis AG, priority 2012, published 2015)
Entries after “also recorded” stand apart in the source; their conditions may differ. Where two headings read alike, the source gives them in different places.

Legend:
GIST430 cells = conditions: Imatinib combined with Dovitinib, 72 hrs
Method: GIST-T1 was obtained from Kochi Medical School, Kochi, Japan.
GIST882 cells were cultured in RPMI-1640 (ATCC Catalog #30-2001) supplemented with 15% FBS and 1% L-glutamine, GIST48 cells in F10 (Gibco/Invitrogen Catalog #11550-043) supplemented with 15% FBS, 0.5% Mito+ (BD Bioscience Catalog #355006), 1% BPE (BD Bioscience/Fisher Catalog#354123) and 1% L-glutamine, GIST430 cells in IMEM (Gib-co/Invitrogen Catalog #12440-053) supplemented with 15% FBS and 1% L-glutamine, and GIST-T1 cells in DMEM (Gibco/Invitrogen Catalog #11965) supplemented with 10% FBS.
10,000 cells suspended in 80 μl media were seeded into each well of a 96-well cell-culture plate and grown for 24 hours prior to treatment. 10 μl of 60 μg/mL heparin (Sigma Catalog # H3149) was added to each well, and then 10 μl of 50 μg/mL FGF2 (R&D Catalog #233-FB/CF) or media was added to each well of the plates. 10 μl of each of the compound dilutions described above and 10 μl of media were added to wells to a […] such that all pair-wise combinations as well as the single agents were represented.

GIST-T1 cells = experiment: CellTiter-Glo cell viability assay, GIST-T1
Source text: (§1) GIST882 was established from an untreated human GIST with a homozygous missense mutation in KIT exon 13, encoding a K642E mutant KIT protein (Tuveson D A, Willis N A, et al. Oncogene 2001; 20: 5054-5058). […] GIST48 has a primary homozygous exon 11 missense mutation (V560D) and a secondary heterozygous exon 17 missense mutation (D820A). GIST430 has a primary heterozygous exon 11 in-frame deletion and a secondary heterozygous exon 13 missense mutation (V654A). […] It was established from a metastatic human GIST with a heterozygous deletion of 57 bases in exon 11 of KIT (Taguchi T, Sonobe H, Toyonaga S, et al. Lab Invest 2002; 82: 663-665).
(§2) 10,000 cells suspended in 80 μl media were seeded into each well of a 96-well cell-culture plate and grown for 24 hours prior to treatment. 10 μl of 60 μg/mL heparin (Sigma Catalog # H3149) was added to each well, and then 10 μl of 50 μg/mL FGF2 (R&D Catalog #233-FB/CF) or media was added to each well of the plates. 10 μl of each of the compound dilutions described above and 10 μl of media were added to wells to a final volume 120 μl such that all pair-wise combinations as well as the single agents were represented. Cells were incubated for 72 hrs at 37° C. in a 5% CO2 incubator following compound addition. Cell proliferation was measured using the CellTiter-Glo luminescent cell viability assay (Promega catalog # G755B) and Victor4 plate reader (Perkin Elmer).

GIST = conditions: cited from earlier work
KIT = KIT inhibition by Western blot in GIST cell lines; type: cell-based, human; conditions: GIST-T1, GIST882 and GIST48; compared with dovitinib
Method: Protein lysates were prepared from cell monalayers using RIPA buffer (Cell Signaling Technology Catalog #9806) according to the procedure described by the manufacturer. Antibod-ies to detect phospho-KIT (Catalog #3073S), total KIT (Catalog #3308), phospho-AKT S473 (Catalog #4058), total AKT (Catalog #9272), phospho-ERK (Catalog #9101), total ERK (Catalog #9107) and phospho-FRS2 (Catalog #3864) were purchased from Cell Signaling Technology. Antibody to GAPDH (Catalog # MAB374) was purchased from Millipore and anti-FRS2(H-91) (Catalog #sc-8318) from Santa Cruz. Bound antibody was detected using the LI-COR Odyssey Infrared Imaging System.

[1] = Imatinib combined with Dovitinib, 72 hrs
[2] = absence of added FGF2, single agent
[3] = presence of added FGF2, single agent

Source text for GIST882 cells: as §1, §2

Structure (SMILES): CN1CCN(c2ccc3nc(-c4c(N)c5c(F)cccc5[nH]c4=O)[nH]c3c2)CC1 [Dovitinib, 4-amino-5-fluoro-3-[6-(4-methylpiperazin-1-yl)-1H-benzimidazol-2-yl]quinolin-2(1H)-one]
- Combination Index for 70% inhibition of GIST cell proliferation (GIST430 cells): 0.624
- Synergy Score for inhibition of GIST cell proliferation (GIST430 cells): 0.635
- Combination Index for 70% inhibition of GIST cell proliferation (GIST-T1 cells; [1]): 0.835
- Synergy Score for inhibition of GIST cell proliferation (GIST-T1 cells; [1]): 0.422
- growth inhibition (GIST-T1 cells; [2]): effective
- growth inhibition (GIST-T1 cells; [3]): restores maximum growth inhibition; also recorded: maximum inhibition was restored to levels comparable to the absence of FGF2
- growth inhibition (GIST-T1 cells; presence of added FGF2, single agent, listed as Dovtinib): same level of maximum inhibition in the presence or absence of added FGF2
- Combination Index for 70% inhibition of GIST cell proliferation (GIST882 cells; [1]): 0.965
- Synergy Score for inhibition of GIST cell proliferation (GIST882 cells; [1]): 0.321
- growth inhibition (GIST882 cells; [2]): effective
- growth inhibition (GIST882 cells; [3]): restores maximum growth inhibition; also recorded: maximum inhibition was restored to levels comparable to the absence of FGF2

Structure (SMILES): Cc1ccc(NC(=O)c2ccc(CN3CCN(C)CC3)cc2)cc1Nc1nccc(-c2cccnc2)n1 [Imatinib, 4-(4-methylpiperazin-1-ylmethyl)-N-[4-methyl-3-(4-(pyridin-3-yl)pyrimidin-2-ylamino)phenyl]-benzamide]
- progression-free survival (PFS) (GIST; 800 mg/day compared to 400 mg/day, advanced GIST harboring KIT exon 9 mutations): significantly improves
- RFS and overall survival (GIST; adjuvant 400 mg once daily, 36 months vs 12 months (SSGXVIII/AIO)): superior to 12 months
- recurrence-free survival (RFS) (GIST; adjuvant 400 mg/day for 12 months vs placebo, after complete resection (ACOSOGZ9001)): significantly prolonged RFS
- KIT inhibition (Western blot) (KIT): more potent KIT inhibitor than dovitinib
- growth inhibition (GIST-T1 cells; [2]): efficacious
- growth inhibition (GIST-T1 cells; [3]): less sensitive
- growth inhibition (GIST882 cells; [2]): efficacious
- growth inhibition (GIST882 cells; [3]): less sensitive

Structure (SMILES): Cc1cn(-c2cc(NC(=O)c3ccc(C)c(Nc4nccc(-c5cccnc5)n4)c3)cc(C(F)(F)F)c2)cn1 [Nilotinib, 4-methyl-3-[[4-(3-pyridinyl)-2-pyrimidinyl]amino]-N-[5-(4-methyl-1H-imidazol-1-yl)-3-(trifluoromethyl)phenyl]benzamide]
- growth inhibition (GIST-T1 cells; [2]): inhibits growth of GIST-T1 cells
- growth inhibition (GIST-T1 cells; absence of added FGF2, single agent, listed as nilotinib): sensitive to KIT inhibition
- growth inhibition (GIST-T1 cells; [3]): less sensitive; also recorded: significantly decreased
- GI50 shift in the presence of added FGF2 (GIST-T1 cells; with vs without added FGF2): greater than 10 fold
- growth inhibition (GIST882 cells; [2]): sensitive to KIT inhibition
- growth inhibition (GIST882 cells; [3]): less sensitive
- GI50 shift in the presence of added FGF2 (GIST882 cells; with vs without added FGF2): greater than 10 fold
